Data as given in article PMC10306345 (Journal of medicinal chemistry, 2013).
Like-named read-outs stand apart in the source and are kept apart here.

Assays:
[1] = tested on: recombinant VACV (vL1Ri) EGFP under synthetic early/late promoter; assay type: cell-based, vaccinia virus
[2] = tested on: E9/A20/D4 dependent in vitro DNA synthesis; conditions: cited from earlier work
vaccinia virus (VACV) = assay: microbe, parasite or virus in culture; assay type: cell-based; conditions: for IC50: Orthopoxvirus vaccinia
E3 protein = assay type: cell-based, vaccinia virus
A4 protein = assay type: cell-based, vaccinia virus
[3] = tested on: VACV viral factories in BSC-1 cells; assay type: cell-based, vaccinia virus

Nc1ccn(C[C@@H](CO)OCP(=O)(O)O)c(=O)n1.O.O [CDV, cidofovir, reference compound]
EGFP expression [1]: equally effective
EGFP expression, treatment post vL1Ri adsorption [1]: comparable EGFP expression and CPE to DMSO vehicle

Cc1ccc2c(Sc3ccc(Cl)cc3)c(C(=O)O)[nH]c2c1 [Compound 1, 3-((4-Chlorophenyl)thio)-6-methyl-1H-indole-2-carboxylic acid]
inhibition of in vitro DNA synthesis [2]: ability to inhibit in vitro DNA synthesis

O=C(O)c1[nH]c2ccccc2c1Sc1ccc(Cl)cc1 [Compound 1d]
antiviral activity (in words) (vaccinia virus (VACV)): loss of activity

COc1cccc2[nH]c(C(=O)O)c(Sc3ccc(Cl)cc3)c12 [Compound 1i]
antiviral activity (in words) (vaccinia virus (VACV)): loss of activity

Cc1ccc2c(c1)c(Sc1ccc(Cl)cc1)c(C(=O)O)n2C [Compound 2]
antiviral activity (in words) (vaccinia virus (VACV)): loss

CCn1c(C(=O)O)c(Sc2ccc(Cl)cc2)c2cc(C)ccc21 [Compound 3]
antiviral activity (in words) (vaccinia virus (VACV)): no gain in activities

COC(=O)c1[nH]c2cc(C)ccc2c1Sc1ccc(Cl)cc1 [Compound 6]
fold improvement in antiviral potency over parent 1 (vaccinia virus (VACV)): ~ 4 fold

COC(=O)c1[nH]c2ccc(C)cc2c1Sc1ccc(Cl)cc1 [Compound 7]
antiviral activity (in words) (vaccinia virus (VACV)): lost activity

COC(=O)c1[nH]c2c(C)cccc2c1Sc1ccc(Cl)cc1 [Compound 8]
fold improvement in antiviral potency over parent 1 (vaccinia virus (VACV)): ~ 4 fold

COC(=O)c1[nH]c2cccc(C)c2c1Sc1ccc(Cl)cc1 [Compound 9]
fold improvement in antiviral potency over parent 1 (vaccinia virus (VACV)): ~ 4 fold

Cc1ccc2c(Sc3ccccc3)c(C(=O)O)[nH]c2c1 [Compound 18]
antiviral activity (in words) (vaccinia virus (VACV)): abolished its antiviral activity

Cc1ccc2c(Sc3cccc(F)c3)c(C(=O)O)[nH]c2c1 [Compound 18b]
IC50 (vaccinia virus (VACV); read-out: IC50 (antiviral activity, Table 2)): 56 µM

Cc1ccc2c(Sc3ccc(Br)cc3)c(C(=O)O)[nH]c2c1 [Compound 18c]
antiviral activity (in words) (vaccinia virus (VACV)): loss of activity

Cc1ccc(Sc2c(C(=O)O)[nH]c3cc(C)ccc23)cc1 [Compound 18d]
antiviral activity (in words) (vaccinia virus (VACV)): failed to show antiviral activities

COc1ccc(Sc2c(C(=O)O)[nH]c3cc(C)ccc23)cc1 [Compound 18e]
antiviral activity (in words) (vaccinia virus (VACV)): failed to show antiviral activities

Cc1ccc2c(Sc3ccc(C(=O)O)cc3)c(C(=O)O)[nH]c2c1 [Compound 18f]
antiviral activity (in words) (vaccinia virus (VACV)): loss of activity

COc1ccc(Sc2c(C(=O)O)[nH]c3cccc(C)c23)cc1 [Compound 19]
antiviral activity (in words) (vaccinia virus (VACV)): failed to show antiviral activities

Cc1ccc(Sc2c(C(=O)O)[nH]c3cccc(C)c23)cc1 [Compound 19a]
antiviral activity (in words) (vaccinia virus (VACV)): failed to show antiviral activities

COC(=O)c1ccc(Sc2c(C(=O)O)[nH]c3cccc(C)c23)cc1 [Compound 19b]
antiviral activity (in words) (vaccinia virus (VACV)): failed to show antiviral activities

Cc1cccc2[nH]c(C(=O)O)c(Sc3ccc([N+](=O)[O-])cc3)c12 [Compound 19c]
antiviral activity (in words) (vaccinia virus (VACV)): loss of activity

Cc1ccc2c(Sc3cc(Cl)cc(Cl)c3)c(CCC(N)=O)[nH]c2c1 [Compound 24a, 3-(3-((3,5-Dichlorophenyl)thio)-6-methyl-1H-indol-2-yl)propanamide]
EGFP expression [1]: significantly reduced
EGFP expression, treatment post vL1Ri adsorption [1]: appreciable EGFP expression
cytopathic effect (CPE) [1]: lowered
E3 early protein level (E3 protein): slight decrease
A4 late protein level (A4 protein): dramatically reduced in a dose-dependent manner
BrdU labeling of viral factories [3]: significantly suppressed

Cc1ccc2c(Sc3cc(Cl)cc(Cl)c3)c(CCCC(N)=O)[nH]c2c1 [Compound 24c, 4-(3-((3,5-Dichlorophenyl)thio)-6-methyl-1H-indol-2-yl)butanamide]
fold decrease in antiviral potency (vaccinia virus (VACV)): ~ 5 fold

Cc1ccc2c(Sc3cc(Cl)cc(Cl)c3)c(CCC(=O)O)[nH]c2c1 [Compound 24d, 3-(3-((3,5-Dichlorophenyl)thio)-6-methyl-1H-indol-2-yl)propanoic acid]
fold decrease in antiviral potency (vaccinia virus (VACV)): ~ 5 fold

CCCCCCNC(=O)CCc1[nH]c2cc(C)ccc2c1Sc1cc(Cl)cc(Cl)c1 [Compound 24e, 3-(3-((3,5-Dichlorophenyl)thio)-6-methyl-1H-indol-2-yl)-N-hexylpropanamide]
antiviral activity (in words) (vaccinia virus (VACV)): loss of activity

COC(=O)c1[nH]c2cc(C)ccc2c1Sc1cc(Cl)cc(Cl)c1 [Compound 27]
antiviral activity (in words) (vaccinia virus (VACV)): loss of activity

CNC(=O)c1[nH]c2cc(C)ccc2c1Sc1cc(Cl)cc(Cl)c1 [Compound 28]
antiviral activity (in words) (vaccinia virus (VACV)): loss of activity

Cc1ccc2c(Sc3cc(Cl)c(Cl)cc3Cl)c(C(=O)O)[nH]c2c1 [Compound 30]
IC50 (vaccinia virus (VACV); read-out: IC50 (antiviral activity, Table 3)): 21 µM

Cc1ccc2c(Sc3ccc(C(F)(F)F)cc3[N+](=O)[O-])c(C(=O)O)[nH]c2c1 [Compound 31]
antiviral activity (in words) (vaccinia virus (VACV)): loss of activity
